Experiment [1] can be described thus: (§1) Inhibition of yeast recombinant FTase. More on the design: species or system Saccharomyces cerevisiae.
Experiment [2] in a line: Inhibition of yeast recombinant FTase by non-competitive Lineweaver-Burke plot using farnesyl pyrophosphate substrate. More on the design: species or system Saccharomyces cerevisiae.
Experiment [3] in a line: Inhibition of yeast recombinant FTase by Lineweaver-Burke plot. More on the design: species or system Saccharomyces cerevisiae.
Experiment [4] deals with Saccharomyces cerevisiae. Described as §1.

The structures appear in SMILES notation. Calls of active or inactive are those of the source. The calls are words filed in the database; no cut-off is given here.

Broadly, the IC50 is the concentration that inhibits the measured activity by half. As for `N#Cc1c(SC2CCCCC2)sc(C(=O)O)c1-c1ccc(Cl)cc1`, in experiment [1] (read-out: IC50), the IC50 came out at 1.45 µM. Consider `CSCC[C@@H](NC(=O)c1sc(SC(C)C)c(C#N)c1-c1ccc(Cl)cc1)C(=O)O`, for which the half-inhibitory concentration (IC50) in experiment [1] (read-out: IC50) was 0.0075 µM. On the same count and under the same terms, the result for `CC(C)Sc1sc(C(N)=O)c(-c2ccc(Cl)cc2)c1C#N` reads 1.1 µM; that for `CSc1sc(C(=O)NC2CC2)c(-c2ccc(Cl)cc2)c1C#N`, 22 µM. `CC(C)Sc1nc(-c2ccc(Cl)cc2)c(C(=O)O)s1`: the IC50 in experiment [1] (read-out: IC50) was 51 µM. As to `CC(C)Sc1scc(-c2ccc(Cl)cc2)c1C#N`, the 50% inhibitory concentration (IC50) entry in experiment [1] is listed as “Not Active”.

Consider `CC(C)Sc1oc(C(=O)O)c(-c2ccc(Cl)cc2)c1C#N`, for which the IC50 in experiment [1] (read-out: IC50) was found to be 2 µM. What is called Ki is a measure of affinity in units of concentration, obtained from inhibition or displacement. Regarding `CC(C)Sc1sc(C(=O)O)c(-c2ccc(Cl)cc2)c1C#N`, the Ki turned out to be 0.11 µM in experiment [2] and 0.105 µM in experiment [3]. The IC50 in experiment [1] (read-out: IC50) came out at 0.11 µM. On to `CC(=O)c1sc(SC(C)C)c(C#N)c1-c1ccc(Cl)cc1`, for which the IC50 in experiment [1] (read-out: IC50) turned out to be 0.79 µM. Same read-out and setting: the result for `CC(C)Sc1c(C#N)c(-c2ccc(Cl)cc2)c(C(=O)O)n1C` reads 47 µM. On the same count and under the same terms, as for `CSc1sc(C(=O)O)c(-c2ccc(Cl)cc2)c1C#N`, the figure is 0.61 µM.

Consider `CCOC(=O)c1c(-c2ccc(Cl)cc2)c(C#N)c(SC(C)C)n1C`, for which, in experiment [4], the result was inactive.

In the case of `CC(=O)OCc1sc(SC(C)C)c(C#N)c1-c1ccc(Cl)cc1`, the IC50 in experiment [1] (read-out: IC50) amounted to 45 µM. For `N#Cc1c(N2CCOCC2)sc(C(=O)O)c1-c1ccc(Cl)cc1`, in experiment [1] (read-out: IC50), the IC50 turned out to be 28 µM.

Consider `CCC(C)Sc1sc(C(=O)O)c(-c2ccc(Cl)cc2)c1C#N` (stereo unspecified), for which the IC50 in experiment [1] (read-out: IC50) came to 0.345 µM. The same measure, in the same setting: as for `CC(C)CSc1sc(C(=O)O)c(-c2ccc(Cl)cc2)c1C#N`, the figure is 0.89 µM. For the molecule `CON(C)C(=O)c1sc(SC(C)C)c(C#N)c1-c1ccc(Cl)cc1`, the IC50 entry in experiment [1] is “Not Active”.

With `CCOC(=O)c1sc(SC(C)C)nc1-c1ccc(Cl)cc1`, in experiment [4], the result was inactive. For `CCSc1sc(C(=O)O)c(-c2ccc(Cl)cc2)c1C#N`, the 50% inhibitory concentration (IC50) in experiment [1] (read-out: IC50) is 0.325 µM. Regarding `CCOC(=O)c1sc(SC(C)C)c(C#N)c1-c1ccc(Cl)cc1`, the IC50 in experiment [1] (read-out: IC50) worked out at 3.8 µM. On the same count and under the same terms, as for `CCCCSc1sc(C(=O)O)c(-c2ccc(Cl)cc2)c1C#N`, the figure is 1.24 µM. `CC(C)Sc1sc(CO)c(-c2ccc(Cl)cc2)c1C#N`: the IC50 result in experiment [1] is listed as “Not Active”. With `CCOC(=O)c1oc(SC(C)C)c(C#N)c1-c1ccc(Cl)cc1`, the outcome in experiment [4] was inactive.

Turning to `COC(=O)[C@@H](CCSC)NC(=O)c1sc(SC(C)C)c(C#N)c1-c1ccc(Cl)cc1`, the IC50 in experiment [1] (read-out: IC50) is 5.7 µM.

The values are drawn from ChEMBL document CHEMBL1155240, “Discovery of a new class of protein farnesyltransferase inhibitors in the arylthiophene series” (J Med Chem, 2009).
